Test results from patent US20250304643A1, “PEPTIDE DUAL AGONISTS OF GIPR AND GLP2R” (BAINAN BIOTECH APS, priority 2021, published 2025).

Tests used:
[1] = biological target: T1, rat GLP-2R (Rattus norvegicus, UniProt Q9Z0W0); assay: HitHunter cAMP assay in transiently transfected COS-7 cells, rat GLP-2R; type: cell-based; conditions: Emax normalized to highest concentration of endogenous ligand
T1 construct: expressed in transfected cells; host or cells: COS-7
T1 sequence (Q9Z0W0 1-550): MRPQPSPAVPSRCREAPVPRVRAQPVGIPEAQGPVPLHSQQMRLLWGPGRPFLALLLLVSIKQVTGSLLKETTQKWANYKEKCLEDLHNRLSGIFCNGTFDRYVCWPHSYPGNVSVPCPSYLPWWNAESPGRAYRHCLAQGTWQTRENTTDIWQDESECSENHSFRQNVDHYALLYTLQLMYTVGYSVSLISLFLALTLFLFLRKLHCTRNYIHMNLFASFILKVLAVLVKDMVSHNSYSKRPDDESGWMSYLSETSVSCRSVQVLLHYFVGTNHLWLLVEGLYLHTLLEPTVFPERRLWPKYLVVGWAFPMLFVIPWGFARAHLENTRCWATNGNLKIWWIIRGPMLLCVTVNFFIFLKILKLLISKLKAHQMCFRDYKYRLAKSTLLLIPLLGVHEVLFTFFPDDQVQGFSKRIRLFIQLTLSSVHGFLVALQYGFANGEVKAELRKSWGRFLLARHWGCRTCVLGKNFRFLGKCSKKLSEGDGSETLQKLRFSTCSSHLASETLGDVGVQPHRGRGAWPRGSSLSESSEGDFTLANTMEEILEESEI
Description: (§1) The next day the assay was initiated by washing with HEPES buffered saline (HBS) and followed by an incubation step with assay buffer (HBS added 1 mM isobutyl-1-methylxanthine (IBMX)) for 30 min at 37° C. The ligands were then added and incubated for an additional 30 min at 37° C. After ligand incubation, the HitHunter® CAMP assay (Eurofins DiscoverX, Fremont, […] USA) was carried out according to the manufacturer's instructions. Luminescence was measured by PerkinElmer™ EnVision 2014 Multilabel Reader (PerkinElmer, Waltham, MA). The potencies (EC50 values) were determined by nonlinear regression using GraphPad Prism 9 (San Diego, California, USA). Sigmoid curves were fitted logistically. The efficacies (Emax values) were determined by normalization to the highest concentration applied of the endogenous ligand for each receptor.

[2] = biological target: T2, human SNAP-GIPR (Homo sapiens, UniProt P48546); type: cell-based; set-up: AUC ± SD: unit not given beside the values
T2 construct: host or cells: HEK293A
T2 sequence (P48546 22-466): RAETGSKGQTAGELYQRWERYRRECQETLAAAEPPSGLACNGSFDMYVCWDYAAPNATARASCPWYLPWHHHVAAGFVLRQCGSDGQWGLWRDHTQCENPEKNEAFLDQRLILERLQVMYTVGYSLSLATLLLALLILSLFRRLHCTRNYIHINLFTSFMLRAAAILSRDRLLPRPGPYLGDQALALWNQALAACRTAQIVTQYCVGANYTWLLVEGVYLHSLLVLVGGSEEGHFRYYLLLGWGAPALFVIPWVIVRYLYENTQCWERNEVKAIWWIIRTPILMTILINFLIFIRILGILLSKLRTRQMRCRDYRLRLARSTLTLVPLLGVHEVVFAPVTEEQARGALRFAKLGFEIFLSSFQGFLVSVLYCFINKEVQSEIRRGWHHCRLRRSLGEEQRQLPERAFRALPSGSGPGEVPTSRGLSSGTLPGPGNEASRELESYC

[3] = biological target: T3, human GLP-1R (Homo sapiens, UniProt P43220); assay: HitHunter cAMP assay in transiently transfected COS-7 cells, human GLP-1R; type: cell-based; conditions: Emax normalized to highest concentration of endogenous ligand; Table 3
T3 construct: host or cells: COS-7
T3 sequence (P43220 24-463): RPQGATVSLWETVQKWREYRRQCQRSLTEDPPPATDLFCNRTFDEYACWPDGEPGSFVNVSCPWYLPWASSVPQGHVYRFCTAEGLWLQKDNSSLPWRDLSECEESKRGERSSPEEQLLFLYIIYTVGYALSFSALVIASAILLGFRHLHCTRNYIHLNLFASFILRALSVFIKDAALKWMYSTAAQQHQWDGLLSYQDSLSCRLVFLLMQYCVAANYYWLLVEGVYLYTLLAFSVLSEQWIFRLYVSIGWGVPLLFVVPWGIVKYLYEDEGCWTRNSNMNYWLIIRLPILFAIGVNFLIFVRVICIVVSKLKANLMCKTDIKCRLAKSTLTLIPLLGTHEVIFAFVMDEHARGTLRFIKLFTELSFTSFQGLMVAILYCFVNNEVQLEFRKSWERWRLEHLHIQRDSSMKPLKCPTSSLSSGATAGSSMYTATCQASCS
Description: as §1

[4] = tested on: macaque GIPR; assay: HitHunter cAMP assay in transiently transfected COS-7 cells, macaque GIPR; type: cell-based
Description: as §1

[5] = tested on: bone turnover markers CTX (resorption) and P1NP (formation); assay: bone turnover markers CTX and P1NP in rats after SC injection; type: in vivo, rat
Description: Sprague Dawley female rats, age 10 w (Janvier Labs, France), n=4, were fasted from 06:00 until after final blood sample. A baseline blood sample was taken just before subcutaneous administration of compound at 10:00. Compounds were dissolved in 50 mM phosphate buffer, pH 7.5+0.1% Haemaccel. Dose: Compound no. 11 4248.5 μg/kg.
Blood samples were taken at 10:00, 14:00, 18:00 and 22:00. Plasma was obtained within 20 min after blood sampling and stored at −20C.
CTX and P1NP were measured using RatLaps (CTX-I) EIA and Rat/mouse P1NP EIA (Immunidiagnosticsystems, UK) according to protocols.
Data are presented using GraphPad Prism V9.3.0 as % of baseline as mean+/−SEM and analyzed by 2-way Anova with Sidaks multiple comparisons tests or by unpaired t-test.

[6] = biological target: T4, human GIPR (Homo sapiens, UniProt P48546); type: cell-based; set-up: host or cells: COS-7; conditions: Emax normalized to highest concentration of endogenous ligand; Table 2
T4 sequence (P48546 22-466): T2 sequence (P48546 22-466)

[7] = biological target: T4, human GIPR; type: cell-based; set-up: host or cells: HEK293; conditions: beta-arrestin 2 recruitment; for AUC ± SD: AUC of sigmoid curves up to 100 nM
Description: HEK293 cells were cultured at 10% CO2 and 37° C. in DMEM-GlutaMAX™-I supplemented with 10% FBS, 180 units/mL penicillin and 45 g/mL streptomycin. These cells were transfected using PEI for the beta-arrestin recruitment assay as described in detail in (van der Velden et al., 2021).
HEK293 cells were transiently transfected with human GIPR, the donor Rluc8-Arrestin-3-Sp1 (beta-arrestin 2 recruitment), the acceptor mem-linker-citrine-SH3, and the GPCR kinase 2 (GRK2). Two days following transfection, the cells were washed with PBS and resuspended in PBS with 5 mM glucose. Then, 85 μL of the cell suspension solution was added to each well of a white 96-well plate followed by the addition of PBS with 5 μM coelenterazine-h. Following 10 min incubation, increasing concentrations of ligands were added and incubated for an additional 30 min. Luminescence was measured with the Berthold Technologies Mithras Multilabel Reader (Rluc8 at 485±40 nm and YFP at 530±25 nm). The potencies (EC50 values) were determined by nonlinear regression using GraphPad Prism 9 (San Diego, California, USA). Sigmoid curves were fitted logistically. The efficacies (Emax values) were determined by normalization to the highest concentration applied of the endogenous ligand (GIP) for the GIPR.

[8] = biological target: T5, rat GIPR (Rattus norvegicus, UniProt P43219); assay: HitHunter cAMP assay in transiently transfected COS-7 cells, rat GIPR; type: cell-based; conditions: Emax normalized to highest concentration of endogenous ligand
T5 construct: expressed in transfected cells; host or cells: COS-7
T5 sequence (P43219 19-455): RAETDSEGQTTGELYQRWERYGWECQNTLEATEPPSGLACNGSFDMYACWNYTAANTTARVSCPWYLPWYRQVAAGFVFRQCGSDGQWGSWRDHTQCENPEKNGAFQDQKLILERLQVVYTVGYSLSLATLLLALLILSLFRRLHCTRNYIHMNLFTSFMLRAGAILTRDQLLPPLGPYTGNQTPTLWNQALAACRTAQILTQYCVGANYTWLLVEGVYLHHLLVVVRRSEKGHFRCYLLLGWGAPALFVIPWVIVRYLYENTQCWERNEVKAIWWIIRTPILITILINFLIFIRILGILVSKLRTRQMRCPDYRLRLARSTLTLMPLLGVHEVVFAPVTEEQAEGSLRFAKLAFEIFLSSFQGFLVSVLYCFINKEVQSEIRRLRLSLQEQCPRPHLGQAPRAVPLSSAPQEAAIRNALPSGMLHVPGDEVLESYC
Description: as §1

[9] = biological target: T4, human GIPR; conditions: 10 nM ligand for 90 min, then 125I-GIP(1-42) labelling; FIG. 3
Description: COS-7 cells were cultured at 10% CO2 and 37° C. in Dulbecco's Modified Eagle Medium (DMEM) 1885 supplemented with 10% fetal bovine serum (FBS), 2 mM glutamine, 180 units/ml penicillin, and 45 g/ml streptomycin.
The following day, the media of the cells were changed to DMEM supplemented 2% FBS and preincubated either with or without 10 nM ligand for 90 min. […] After incubation, the cells were washed twice in 100 μl per well ice-cold binding buffer and lysed using 175 μl per well of 200 mM NaOH with 1% SDS for 30 min. The samples were analyzed by the Wizard Gamme Counter (PerkinElmer, Waltham, MA). Data was analyzed by comparing the counts measured from the ligand preincubated and non-preincubated cells.

Substance | rGLP-2R Efficacy (%) [1] | AUC ± SD [2] | Emax ± SD (%) ([2]; GIPR internalization, NA = no activity) | Efficacy GLP-1R [3] | maGIPR Efficacy (%) ([4]; Emax normalized to highest concentration of the endogenous ligand, COS-7 cells) | maGIPR pEC50 ([4]; cAMP, transiently transfected COS-7 cells) | formation marker P1NP, % of baseline ([5]; female rats, SC 4248.5 μg/kg, time 14:00 and 18:00, FIG. 2B) | resorption marker CTX, % of baseline ([5]; female rats, SC 4248.5 μg/kg, time point 14:00, p-value=0.08, FIG. 2A) | CTX AUC ([5]; rat, in vivo, sc) | Efficacy GIPR [6] | AUC ± SD [7] | Emax ± SD (%) ([7]; normalized to highest concentration of GIP, NA = no activity) | rGIPR Efficacy (%) [8] | GIPR expression at the cell surface following ligand preincubation [9]
H-Aib-DGTFISDY-K(γGlu-C16)-TILDNLAARDFINWLIQTKITK-OH [Compound no. 11] | 104.0% | 19 ± 2 | 24 ± 6% | 11 | 92.5% | 9.0 | increase | reduced (ns) increase | tendency towards a reduction | 115 | 61 ± 14 | 41 ± 6% | 107.0% | 
YAEGTFISDYSIAMDKIHQQDFVNWLLAQKGKKNDWKHNITQ [hGIP, reference compound] |  | 204 ± 3 |  |  |  |  |  |  |  |  | 223 ± 16 |  |  | downregulation of the GIPR from the cell surface
